Test results published in patent US11578055B2, “Triazacyclododecansulfonamide (“TCD”)-based protein secretion inhibitors” (KEZAR LIFE SCIENCES, priority 2018, dated 2023).
pEC50, pIC50: −log10 of the molar value.

Experiments:
[1] = In Vitro Microsome Stability Assay (human); type: in vitro ADME; conditions: human liver microsomes, 30 min w/ NADPH
Method in brief: (§1)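 Species liver microsomes in potassium phosphate buffer were preincubated at 37 °C for 3–5 min with test compound (added from 0.25 mM DMSO stock), then started with NADPH. Samples at 0 and 30 min were quenched with acetonitrile containing internal standard and analysed by LC-MS/MS; % remaining at 30 min used analyte/IS AUC ratios relative to t=0.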

[2] = system: multiple myeloma cell line NCl-H929; assay: H929 Cell Viability Assay; type: cell-based, human; conditions: Homo sapiens, NCI-H929, 48 h, H929, Celltiter-Glo
Method in brief: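 NCI-H929 myeloma cells in RPMI 1640 with 10% FBS were treated with compound dilutions for 48 h at 37 °C, and viability was then read by CellTiter-Glo luminescence. Compounds drawn without stereochemistry were tested as stereoisomer mixtures.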

[3] = system: multiple myeloma cell line U266B1; assay: U266 Cell Viability Assay; type: cell-based, human; conditions: Homo sapiens, U-266; 48 hr, U266, Celltiter-Glo
Method in brief: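 U266B1 myeloma cells in RPMI 1640 with 10% FBS were treated with compound dilutions for 48 h at 37° C, 5% CO2. Viability was read as CellTiter-Glo luminescence. Data for structures drawn without stereochemistry refer to stereoisomer mixtures.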

[4] = In Vitro Microsome Stability Assay (rat); type: in vitro ADME; conditions: rat liver microsomes, 30 min w/ NADPH
Method in brief: as §1

[5] = In Vitro Microsome Stability Assay (monkey); type: in vitro ADME; conditions: monkey liver microsomes, 30 min w/ NADPH
Method in brief: as §1

[6] = system: PD1 signal sequence plus 10 amino acids fused to Gaussia Luciferase (PD1-ss+10aa/Gaussia Luciferase); assay: Dox Induced PD1-ss-Gluc Assay; type: cell-based; conditions: 24 hr, Dox inducible, 293FRT/TO cells; read-out: 24 hr Dox Inducible PD1ssGluc 293FRT/TO: Mean IC50
Method in brief: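 Stable Flp-In 293 T-REx line expressing the fusion under tetracycline-inducible control, plated the day before assay. Compound dilutions added with doxycycline and incubated at 37 °C, 5% CO2; unspecified stereocentres mean data refer to stereoisomer mixtures.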

[7] = system: full length IL-2 (amino acids 1-153) fused to Gaussia Luciferase; assay: Dox Induced IL2-FL-Gluc Assay; type: cell-based; conditions: 24 hr, Dox inducible, 293FRT/TO cells; read-out: 24 hr Dox Inducible IL2FLGluc 293FRT/TO: Mean IC50
Method in brief: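 Flp-In 293 T-REx stable line expressing full-length IL-2 (aa 1-153) with C-terminal Gaussia luciferase fusion under doxycycline-inducible control. Cells plated the day before; compound dilutions added in DMSO/media containing doxycycline, incubated at 37° C, 5% CO2.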

[8] = system: full length TNFα (amino acids 1-233) fused to Gaussia Luciferase; assay: Dox Induced TNFα-FL-Gluc Assay; type: cell-based; conditions: 24 hr, Dox inducible, 293FRT/TO cells; read-out: 24 hr Dox Inducible TNFaFLGluc 293FRT/TO: Mean IC50
Method in brief: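 Stable Flp-In 293 T-REx line expressing doxycycline-inducible full-length TNFα fused to Gaussia luciferase; cells plated the day before, then treated with compound dilutions in doxycycline-containing medium at 37° C, 5% CO2. Unspecified stereocentres mean stereoisomer mixtures were tested.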

[9] = In Vitro Microsome Stability Assay (mouse); type: in vitro ADME; conditions: mouse liver microsomes, 30 min w/ NADPH
Method in brief: as §1

Row | SMILES | Liver Microsome Stability-% Left after 30 min w/ NADPH (%) Human [1] [%] | pEC50 [2] | pEC50 [3] | Liver Microsome Stability-% Left after 30 min w/ NADPH (%) Rat [4] [%] | Liver Microsome Stability-% Left after 30 min w/ NADPH (%) Monkey [5] [%] | pIC50 [6] | pIC50 [7] | pIC50 [8] | Liver Microsome Stability-% Left after 30 min w/ NADPH (%) Mouse [9] [%]
1 | C[C@H]1CN(S(=O)(=O)c2ccc(N(C)C)cc2)CCCN(CC2CCCC2)CCCN(S(=O)(=O)N2CCc3cc(Cl)ccc3C2)C1 [A157, 4-{[(3S)-5-[(6-chloro-1,2,3,4-tetrahydroisoquinolin-2-yl)sulfonyl]-9-(cyclopentylmethyl)-3-methyl-1,5,9-triazacyclododecan-1-yl]sulfonyl}-N,N-dimethylaniline] | 21.1 | 6.07 | < 4.60 | 32.2 | 27.3 | 7.63 | 7.11 | 6.23 | 23.3
2 | C[C@H]1CN(CC2CCCCC2)C[C@H](C)CN(S(=O)(=O)N2CCc3cc(Cl)ccc3C2)C[C@@H](C)CN(S(=O)(=O)c2ccc(N(C)C)cc2)C1 [A160, 4-{[(3S,7S,11S)-5-[(6-chloro-1,2,3,4-tetrahydroisoquinolin-2-yl]sulfonyl]-9-(cyclohexylmethyl)-3,7,11-trimethyl-1,5,9-triazacyclododecan-1-yl]sulfonyl}-N,N-dimethylaniline] | 71.8 | < 4.60 | < 4.60 | 51.1 | 46.1 | 6.82 | 6.34 | 4.97 | 61.3
3 | Cc1cc(F)ccc1N1CC2(C1)CN(S(=O)(=O)N1CCCN(CC3CCCCC3)CCCN(S(=O)(=O)c3ccc(N(C)C)cc3)C[C@H](C)C1)C2 [A161, 4-{[(3S)-9-(cyclohexylmethyl)-5-{[6-(4-fluoro-2-methylphenyl)-2,6-diazaspiro[3.3]heptan-2-yl]sulfonyl}-3-methyl-1,5,9-triazacyclododecan-1-yl]sulfonyl}-N,N-dimethylaniline] | 20.2 | < 4.60 | < 4.60 | 27.3 | 16.7 | 6.24 | 6.14 | < 4.60 | 26.5

Next, values leading:

Row | Liver Microsome Stability-% Left after 30 min w/ NADPH (%) Human [1] [%] | pEC50 [2] | pEC50 [3] | Liver Microsome Stability-% Left after 30 min w/ NADPH (%) Rat [4] [%] | Liver Microsome Stability-% Left after 30 min w/ NADPH (%) Monkey [5] [%] | pIC50 [6] | pIC50 [7] | pIC50 [8] | Liver Microsome Stability-% Left after 30 min w/ NADPH (%) Mouse [9] [%] | SMILES
4 | 70.5 | < 4.60 | < 4.60 | 69.6 | 60.3 | 6.99 | 6.70 | 5.20 | 62.5 | Cc1cc(F)ccc1N1CCN(S(=O)(=O)N2CCCN(CC3CCCCC3)CCCN(S(=O)(=O)c3ccc(N(C)C)cc3)C[C@H](C)C2)[C@@H](C)C1 [A162, 4-{[(3S)-9-(cyclohexylmethyl)-5-{[(2 S)-4-(4-fluoro-2-methylphenyl)-2-methylpiperazin-1-yl]sulfonyl}-3-methyl-1,5,9-triazacyclododecan-1-yl]sulfonyl}-N,N-dimethylaniline]
5 | 64.8 | < 4.60 | < 4.60 | 57.9 | 40.9 | 6.34 | 6.01 | < 4.60 | 69.0 | C[C@@H]1CN(CC2CCCCC2)C[C@@H](C)CN(S(=O)(=O)N2CCc3cc(Cl)ccc3C2)C[C@@H](C)CN(S(=O)(=O)c2ccc(N(C)C)cc2)C1 [A164]
